Measured values published in US20080242590A1, “New Method 706” (ASTRAZENECA AB, priority 2007, published 2008).

Tests used:
Assay type in all cases: biochemical
[1] = system: amyloid β peptide 1-40 (Aβ40); assay: Degradation of Aβ40 in human plasma (Example 18); conditions: 10 μM phosphoramidon
Procedure: Blood from eight individuals (5 females and 3 males) were collected into pre-chilled heparin-plasma tubes at the healthcare centre (AstraZeneca) at two different time points. Plasma was prepared by centrifugation for 20 min at 4° C. at 2500×g within 30 minutes of sampling. Plasma samples were transferred to pre-chilled polypropylene tubes and immediately frozen and stored at −70° C. prior to use. His-Fc-Nep (6 μg/ml) or 5 μg/ml recombinant human Neprilysin (R&D systems) with corresponding vehicles (50 mM Tris-HCl, 150 mM NaCl pH 7.5 or 25 mM Tris-HCl, 0.1 M NaCl pH 8.0) in presence or absence of 10 μM phosphoramidon was incubated with a pool of plasma at 37° C. for 0 and 4 h. A final concentration of 4.7 mM EDTA was added into the tubes before the amount of Aβ40 was analysed using a commercial ELISA kit obtained from Biosource. His-Fc-Nep (6 μg/ml) and commercial human recombinant neprilysin (5 μg/ml) degraded Aβ40 with 33% and 70%, respectively, compared to vehicle after 4 hours incubation at 37° C. The Aβ40 levels were unaffected after addition of 10 μM phosphoramidon (FIG. 4).

[2] = system: amyloid β peptide 1-42 (Aβ42); assay: Ex-vivo degradation of Aβ42 in guinea pig plasma; conditions: 10 μM, combined with 208 μg/ml His-Fc-Nep
Procedure: (§1) Degradation of amyloid β peptide 1-40 (Aβ40) and amyloid β peptide 1-42 (Aβ42) by neprilysin was investigated using heparinized plasma from male Dunkin Hartley guinea pigs, weighing 250-300 g (HBLidkoping ka). Blood was withdrawn from anaesthetized guinea pigs by heart puncture. The blood were collected into prechilled heparin-plasma tubes and centrifuged for 10 min at 4° C. at 3000×g within 20 minutes of sampling. Plasma samples were transferred to pre-chilled polypropylene tubes and immediately frozen on dry ice and stored at −70° C. prior to use. The experiments were performed on a pool of plasma from seven guinea pigs. His-Fc-Nep (6 μg/ml or 208 μg/ml) or 5 μg/ml recombinant human Neprilysin (R&D systems) with corresponding vehicles (50 mM Tris-HCl, 150 mM NaCl pH 7.5 or 25 mM Tris-HCl, 0.1 M NaCl pH 8.0) were incubated with a pool of plasma in presence or absence of 10 μM phosphoramidon (BIOMOL) at 37° C. for 0 and 4 h. A final concentration of 4.7 mM EDTA was added into the tubes before the amount of Aβ40 and Aβ42 was analysed using a commercial ELISA kit obtained from Biosource (Aβ1-40) or Innogenetics (Aβ1-42).

[3] = system: amyloid β peptide 1-40 (Aβ40); assay: Ex-vivo degradation of Aβ40 in guinea pig plasma; conditions: 10 μM phosphoramidon
Procedure: as §1

amyloid β 1-40 peptide = assay: Degradation of amyloid β 1-40 peptide by Fc-Neprilysin and Neprilysin in buffer; conditions: 10 μM Phosphoramidone
Procedure: The assay is measuring the remaining amyloid β 1-40 peptide (Bachem) concentration following its incubation in the presence of Neprilysin (R&D Systems) or Fc-Neprilysin with or without Neprilysin inhibitor. 100 μl of reaction mixture containing amyloid β 1-40 peptide (final concentrations, 300, 30 or 3 nM) and/or Neprilysin (2.4 μg/ml), and/or Fc-Neprilysin construct (2.4 μg/ml), and/or Phosphoramidone (10 μM) was incubated in a round bottom 96-well polypropylene plate at 37° C. for 2.5 hours. Following incubation, 10 μl of reaction mixture was transferred into Thermo-Fast© 96-well PCR plate (Abgene, UK) containing 10 μl of Standard Diluent (Gyros AB). Amyloid β 1-40 concentration was determined using Gyrolab Workstation LIF system. Biotinylated anti-amyloid β antibodies (6E10; final concentration 50 μg/ml; Signet) were used as capturing antibodies and polyclonal anti-human amyloid β antibodies (44-348; Biosource) labeled with Alexa Fluor 647 dye (Molecular probes) were used as detection antibodies. […] Amyloid β 1-40 peptide degradation by Neprilysin was calculated as a percentage of Amyloid β 1-40 peptide left after incubation in the presence of Neprilysin compared to the amyloid β 1-40 peptide concentration in the absence of Neprilysin.

Aβ40 levels after addition of inhibitor to the enzyme incubation [1]: unaffected | Aβ40 levels after addition of inhibitor to the enzyme incubation [3]: unaffected
SMILES: CC(C)C[C@H](NP(=O)(O)O[C@@H]1O[C@@H](C)[C@H](O)[C@@H](O)[C@H]1O)C(=O)N[C@@H](Cc1c[nH]c2ccccc12)C(=O)O [Phosphoramidone, reference compound]
Inhibition of the Aβ42 reduction by phosphoramidon [2]: not inhibited | Specific Neprilysin activity in the presence of inhibitor (amyloid β 1-40 peptide): almost completely abolished
